This is an account of results in patent US20250263733A1, “TARGETED GENE INTEGRATION IN PLANTS” (LIMAGRAIN EUROPE, priority 2021, published 2025).

The subject of the series is Ubi7DL gene. Description: NGS sequencing of transformed plantlets for mutations at the gRNA target site around the STOP codon of Ubi7DL. Also on record: species or system wheat var. Fielder. Particulars: 59 of 97 events; multiplex G1, G2, G3 guides with Cas9; all mutations generated with G3. From the text:
The strategy for GT at Ubi7DL is outlined in FIG. 1 and is based on the method of in planta GT (Fauser et al. 2012). A Cas9 gRNA (G3 SEQ ID NO: 8) that efficiently makes a DNA double strand break (DSB) around the STOP codon of the Ubi7DL gene was first identified by Agrobacterium-mediated transformation into wheat var. Fielder with a binary plasmid containing a TaU6-tRNA multiplex guide (SEQ ID NO: 10) expressing 3 guides G1 (SEQ ID NO: 6), G2 (SEQ ID NO: 7) and G3 (SEQ ID NO: 8) under control of promoter TaU6 (SEQ ID NO: 9), together with ZmUbi (SEQ ID NO: 11)-Cas9 (SEQ ID NO: 13)-nos terminator (SEQ ID NO: 12) and pActin-Bar-nos cassettes. These 3 target sites are around the STOP codon of Ubi7DL. Fielder wheat cultivar was transformed with these Agrobacterium strains essentially as described by WO2000/063398.

With “G3: Cas9 gRNA (SEQ ID NO: 8) making a double strand break around the STOP codon of Ubi7DL (guide CAGGAGCTTACTGGCCACCA; listed as DNA, chemistry not given here; listed as Triticum aestivum) [Line G3]”, the “independent transformation events with mutations at the target site” value came to 61%.
